Some test systems named below: LOX IMVI; SF-539; COLO 205; MDA-MB-231; SW-620; SF-268; OVCAR-5; NCI-H460; HOP-92; DU-145; UO-31; SN12C; MCF7; HCC 2998; ACHN; EKVX; RPMI-8226; KM12; HCT-15.
What all share (assay): NCI anticancer screen, dose series, 48 h

Molecules are shown by their SMILES.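 Results reflect a 48-hour exposure of cells in 96-well plates to compound at five concentrations. GI50 marks 50% less growth.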 Calls of active or inactive are those of the source. Cut-off read from the data, not from the text of the source: active = GI50 up to about 1.1 µM and inactive = higher.

Regarding `COC(=O)[C@H]1C=C[C@H](OC2OC(COC(C)=O)C(OC(C)=O)C(OC(C)=O)C2OC(C)=O)n2c(=O)n(-c3ccccc3)c(=O)n21` (some centres undefined), the GI50 with LOX IMVI was 1.84 µM (inactive); in the assay on SF-539 it was 2.09 µM (inactive); in the assay on COLO 205, 1.7 µM (inactive); in the assay with MDA-MB-231, 6.97 µM (inactive); in the assay with SW-620 it was 2.18 µM (inactive); in the assay on SF-268 it was 3.67 µM (inactive). Further, the GI50 with OVCAR-5 was 9.18 µM (inactive); with NCI-H460, 2.92 µM (inactive); in the assay with HOP-92, 1.78 µM (inactive); in the assay on DU-145, 6.08 µM (inactive); in the assay with UO-31, 2.04 µM (inactive); in the assay on SN12C, 6.52 µM (inactive). Also, the GI50 in the assay with MCF7 was 2.42 µM (inactive); in the assay with HCC 2998 it was 2.23 µM (inactive); in the assay on ACHN it was 1.66 µM (inactive); in the assay with EKVX it was 2.59 µM (inactive); in the assay with RPMI-8226, 1.66 µM (inactive); in the assay on KM12, 11 µM (inactive). The same compound gave a GI50 in the assay with HCT-15 of 1.41 µM.

Regarding `N#CC1=CNc2sccc2S1(=O)=O`, the GI50 with LOX IMVI is > 100 µM (inactive); in the assay with SF-539, > 100 µM (inactive); in the assay with COLO 205 it was > 100 µM (inactive); in the assay on MDA-MB-231, > 100 µM (inactive); in the assay with SW-620, > 100 µM (inactive); with SF-268 it was 81.7 µM (inactive). Besides, the GI50 in the assay on OVCAR-5 is > 100 µM (inactive); in the assay on NCI-H460, 40.7 µM (inactive); in the assay on HOP-92 it was > 100 µM (inactive); with DU-145, > 100 µM (inactive); in the assay with UO-31, 92.9 µM (inactive); in the assay with SN12C, > 100 µM (inactive). For the same compound, the GI50 in the assay with MCF7 is > 100 µM (inactive); with HCC 2998, 39.8 µM (inactive); with ACHN, > 100 µM (inactive); in the assay on EKVX, > 100 µM (inactive); with RPMI-8226 it was > 100 µM (inactive); in the assay on KM12 it was 1.68 µM (inactive). Also, the GI50 in the assay with HCT-15 is 61.9 µM.

For `O=C1C2=Cc3ccccc3CCN2c2ccccc21`, the GI50 in the assay with LOX IMVI is 17.3 µM (inactive); in the assay on SF-539, 16.4 µM (inactive); with COLO 205, > 41.7 µM (inactive); in the assay with MDA-MB-231, > 41.9 µM (inactive); in the assay on SW-620 it was 20.4 µM (inactive); with SF-268, > 50.8 µM (inactive). The GI50 in the assay with OVCAR-5 is 61.4 µM (inactive); in the assay with NCI-H460, 21.2 µM (inactive); with HOP-92 it was 28.8 µM (inactive); with DU-145 it was > 75.3 µM (inactive); in the assay with UO-31, 42.8 µM (inactive); with SN12C, 18.8 µM (inactive). The GI50 was 14.9 µM (inactive) in the assay with MCF7; 7.31 µM (inactive) with HCC 2998; 17.3 µM (inactive) with ACHN; 29 µM (inactive) in the assay with EKVX; 13.5 µM (inactive) in the assay on RPMI-8226; 26.7 µM (inactive) in the assay with KM12. Besides, the GI50 with HCT-15 was 25.6 µM.

Consider `O=[N+]([O-])c1ccc2[nH]c(=S)[nH]c(=S)c2c1`, for which the GI50 in the assay on LOX IMVI is > 100 µM (inactive); in the assay with SF-539, > 100 µM (inactive); in the assay on COLO 205, > 100 µM (inactive); with MDA-MB-231, > 100 µM (inactive); with SW-620 it was > 10 µM (inactive); in the assay with SF-268 it was > 100 µM (inactive). The GI50 with OVCAR-5, with NCI-H460, in the assay on HOP-92, in the assay with DU-145, with UO-31 and in the assay on SN12C was > 100 µM (inactive) each time. Further, the GI50 with MCF7, with HCC 2998, in the assay on ACHN, with EKVX, in the assay with RPMI-8226 and in the assay with KM12 was > 100 µM (inactive) throughout. This compound also registered a GI50 in the assay on HCT-15 above 100 µM.

As to `Cc1c2c(OCCCCN3CCN(c4ncccn4)CC3)nn(C)c(=O)c2c(C)n1-c1ccccc1`, the GI50 was 20.4 µM (inactive) with LOX IMVI; 17.6 µM (inactive) in the assay with SF-539; 19 µM (inactive) with COLO 205; 16 µM (inactive) in the assay with MDA-MB-231; 25.6 µM (inactive) in the assay on SW-620; 18.7 µM (inactive) in the assay on SF-268. The GI50 in the assay with OVCAR-5 was 20.5 µM (inactive); in the assay on NCI-H460, 17.4 µM (inactive); in the assay on HOP-92, 16.4 µM (inactive); with DU-145, 17.1 µM (inactive); in the assay on UO-31, 15.8 µM (inactive); in the assay on SN12C, 17.2 µM (inactive). The GI50 was 16.4 µM (inactive) with MCF7; 20 µM (inactive) with HCC 2998; 17.4 µM (inactive) in the assay on ACHN; 19.1 µM (inactive) in the assay on EKVX; 20.2 µM (inactive) in the assay with RPMI-8226; 18.4 µM (inactive) in the assay on KM12. The compound further had a GI50 with HCT-15 of 17.8 µM.

As to `CC1CN=C(Nc2ccc(S(N)(=O)=O)cc2)S1` (centres undefined), the GI50 in the assay on LOX IMVI is > 10 µM (inactive); in the assay with SF-539 it was > 100 µM (inactive); with COLO 205 it was > 100 µM (inactive); in the assay on MDA-MB-231 it was > 100 µM (inactive); in the assay on SW-620 it was > 100 µM (inactive); in the assay with SF-268 it was > 100 µM (inactive). Also, the GI50 is > 100 µM (inactive) in the assay on OVCAR-5; > 100 µM (inactive) in the assay with NCI-H460; > 100 µM (inactive) with HOP-92; > 100 µM (inactive) with DU-145; 39.4 µM (inactive) with UO-31; > 100 µM (inactive) in the assay with SN12C. For the same compound, the GI50 in the assay on MCF7 was 78.5 µM (inactive); with HCC 2998 it was > 100 µM (inactive); in the assay with ACHN, > 100 µM (inactive); in the assay with EKVX it was > 100 µM (inactive); in the assay with RPMI-8226 it was > 100 µM (inactive); with KM12, > 100 µM (inactive). This compound also came in with a GI50 with HCT-15 above 100 µM.

As to `COC(=O)C1CCC(=O)N1C(c1ccccc1)c1ccc(OC)c(OC)c1` (centres undefined), the GI50 with LOX IMVI, in the assay on SF-539, in the assay on COLO 205, in the assay with MDA-MB-231, in the assay on SW-620 and in the assay on SF-268 was > 100 µM (inactive) throughout. The GI50 in the assay with OVCAR-5, with NCI-H460, in the assay on HOP-92, with DU-145, in the assay with UO-31 and in the assay with SN12C was > 100 µM (inactive) throughout. Further, the GI50 with MCF7, in the assay with HCC 2998, with ACHN, in the assay with EKVX, with RPMI-8226 and with KM12 was > 100 µM (inactive) each time. In the assay with HCT-15, this compound registered a GI50 above 100 µM.

As to `Cc1nc2c3c(ncn2n1)Oc1c(c(-c2ccccc2)nn1-c1ccccc1)C3c1ccc(Cl)cc1` (centres undefined), the GI50 in the assay with LOX IMVI is > 100 µM (inactive); in the assay with SF-539, 22.3 µM (inactive); in the assay with COLO 205, > 100 µM (inactive); with MDA-MB-231 it was > 100 µM (inactive); with SW-620, > 100 µM (inactive); with SF-268, 47.2 µM (inactive). In addition, the GI50 in the assay on OVCAR-5 was > 100 µM (inactive); in the assay on NCI-H460 it was > 100 µM (inactive); in the assay with HOP-92, 98.4 µM (inactive); in the assay on DU-145 it was > 100 µM (inactive); in the assay with UO-31, > 100 µM (inactive); with SN12C, > 100 µM (inactive). Besides, the GI50 with MCF7 was > 100 µM (inactive); in the assay on HCC 2998, > 100 µM (inactive); in the assay on ACHN it was 40.8 µM (inactive); in the assay with EKVX it was > 100 µM (inactive); in the assay with RPMI-8226, > 100 µM (inactive); in the assay on KM12, > 100 µM (inactive). In the assay on HCT-15, this compound returned a GI50 above 100 µM.

Regarding `COc1c(C)c(C/C=C(\C)CCCCO)c(OC)c2ccccc12`, the GI50 is 18.8 µM (inactive) in the assay on LOX IMVI; 52.8 µM (inactive) in the assay on SF-539; 38.2 µM (inactive) with COLO 205; 40.6 µM (inactive) with MDA-MB-231; 57.3 µM (inactive) with SW-620; 44 µM (inactive) in the assay with SF-268. Moreover, the GI50 is 83.8 µM (inactive) in the assay on OVCAR-5; 20.6 µM (inactive) with NCI-H460; 21.4 µM (inactive) with HOP-92; 45.3 µM (inactive) in the assay on DU-145; 30.1 µM (inactive) in the assay on UO-31; 23.4 µM (inactive) in the assay with SN12C. The GI50 is 38.5 µM (inactive) in the assay with MCF7; 23.3 µM (inactive) in the assay with HCC 2998; 36.1 µM (inactive) in the assay with ACHN; 61.5 µM (inactive) in the assay with EKVX; > 100 µM (inactive) in the assay with RPMI-8226; 23.9 µM (inactive) with KM12. Further, the GI50 with HCT-15 is 31.6 µM.

As to `COc1ccc(/[N+]([O-])=C/c2ccccc2OC(=S)S)cc1`, the GI50 in the assay with LOX IMVI is 20.1 µM (inactive); with SF-539, 22.6 µM (inactive); in the assay on COLO 205, 30.1 µM (inactive); with MDA-MB-231, 56.2 µM (inactive); in the assay on SW-620 it was 39.8 µM (inactive); with SF-268, 34.8 µM (inactive). In addition, the GI50 with OVCAR-5 is 35.9 µM (inactive); in the assay with NCI-H460 it was 45.1 µM (inactive); in the assay with HOP-92, 12.4 µM (inactive); in the assay with DU-145 it was 39.9 µM (inactive); with UO-31 it was 24.6 µM (inactive); in the assay with SN12C, 24.5 µM (inactive). For the same compound, the GI50 was 33.6 µM (inactive) with MCF7; 44.5 µM (inactive) with HCC 2998; 38.5 µM (inactive) in the assay on ACHN; 40.2 µM (inactive) in the assay with EKVX; 25.6 µM (inactive) with RPMI-8226; 31 µM (inactive) in the assay on KM12. The GI50 in the assay with HCT-15 is 30.6 µM.

Turning to `C=CCSSCC=C`, the GI50 is 9.73 µM (inactive) with LOX IMVI; 29.5 µM (inactive) in the assay on SF-539; 41.6 µM (inactive) in the assay on COLO 205; 16.8 µM (inactive) with MDA-MB-231; 19.1 µM (inactive) in the assay with SW-620; 47.9 µM (inactive) in the assay on SF-268. Besides, the GI50 in the assay on OVCAR-5 is 51.6 µM (inactive); with NCI-H460 it was 32.4 µM (inactive); in the assay with HOP-92, 28.5 µM (inactive); in the assay with DU-145 it was > 100 µM (inactive); with UO-31, 32.9 µM (inactive); with SN12C, 36.7 µM (inactive). Also, the GI50 in the assay with MCF7 is 30.3 µM (inactive); in the assay with HCC 2998, > 100 µM (inactive); with ACHN, > 73.6 µM (inactive); in the assay with EKVX it was > 100 µM (inactive); in the assay on RPMI-8226 it was 4.05 µM (inactive); with KM12, 68.9 µM (inactive). Further, in the assay on HCT-15, the GI50 is 38.5 µM.

Values taken from ChEMBL document CHEMBL1201862, “PubChem BioAssay data set” (2004).
